# According to patent US20250115583A1, “BICYCLIC INDAZOLE GLUCOCORTICOID RECEPTOR ANTAGONISTS” (Corcept Therapeutics Incorporated, priority 2021, published 2025):
# Target: glucocorticoid receptor (Homo sapiens (Human), UniProt P04150)
# Test: HepG2 TAT assay: inhibition of dexamethasone-induced tyrosine aminotransferase (TAT) activity
# Type: cell-based
# Settings: HepG2 cells, challenge of 100 nM dexamethasone, 18-24 hr; IC50 converted to Ki by Cheng and Prusoff equation
# Description: Glucocorticoid mediated activation of TAT occurs by transactivation of glucocorticoid response elements in the TAT promoter by glucocorticoid receptor-agonist complex.
# HepG2 cells were cultured using MEME media supplemented with 10% (v/v) foetal bovine serum; 2 mM L-glutamine and 1% (v/v) NEAA at 37° C., 5%/95% (v/v) CO2/air.
# Compounds were serially half log diluted in 100% (v/v) dimethylsulphoxide from a 10 mM stock.
# HepG2 cells were then lysed with 30 μl of cell lysis buffer containing a protease inhibitor cocktail for 15 minutes at 4° C. […] After 2 hours incubation at 37° C. the reaction was terminated by the addition of 15 μl of 10M aqueous potassium hydroxide solution, and the plates incubated for a further 30 minutes at 37° C.
# [compound] and fitting the data to a 4 parameter logistic equation.
# Sequence of glucocorticoid receptor (P04150 whole entry): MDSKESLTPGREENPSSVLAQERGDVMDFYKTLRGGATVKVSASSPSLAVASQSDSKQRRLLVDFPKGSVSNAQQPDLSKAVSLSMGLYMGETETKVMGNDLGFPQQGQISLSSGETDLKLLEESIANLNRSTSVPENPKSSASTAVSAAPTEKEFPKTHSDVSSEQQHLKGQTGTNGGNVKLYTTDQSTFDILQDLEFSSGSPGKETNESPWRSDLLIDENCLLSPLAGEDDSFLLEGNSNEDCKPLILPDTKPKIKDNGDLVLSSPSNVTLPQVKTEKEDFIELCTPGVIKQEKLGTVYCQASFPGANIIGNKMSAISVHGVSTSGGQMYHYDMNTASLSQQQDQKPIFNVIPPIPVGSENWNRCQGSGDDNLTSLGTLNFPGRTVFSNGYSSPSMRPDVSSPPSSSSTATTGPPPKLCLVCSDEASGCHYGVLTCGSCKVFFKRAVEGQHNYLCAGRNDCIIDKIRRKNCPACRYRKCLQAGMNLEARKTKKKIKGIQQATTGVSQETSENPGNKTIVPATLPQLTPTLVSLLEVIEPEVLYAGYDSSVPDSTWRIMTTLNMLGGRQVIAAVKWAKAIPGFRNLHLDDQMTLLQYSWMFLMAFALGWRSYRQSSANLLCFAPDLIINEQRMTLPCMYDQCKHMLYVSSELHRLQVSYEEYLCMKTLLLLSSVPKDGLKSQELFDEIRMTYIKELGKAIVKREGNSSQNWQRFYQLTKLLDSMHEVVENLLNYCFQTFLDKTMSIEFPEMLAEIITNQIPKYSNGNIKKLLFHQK
row,Ki [µM],Compound
1,0.024,"CCCn1cc(S(=O)(=O)N2C[C@@H]3[C@@H](c4ccccc4)[C@]3(c3cc4cnn(-c5ccc(F)cc5)c4cc3C)C2)cn1 (single isomer, unassigned) [Example 69, 1-(4-fluorophenyl)-6-methyl-5-(6-phenyl-3-((1-propyl-1H-pyrazol-4-yl)sulfonyl)-3-azabicyclo[3.1.0]hexan-1-yl)-1H-indazole]"
2,0.0094,"Cc1cc2c(cnn2-c2ccc(F)cc2)cc1[C@@]12CN(S(=O)(=O)c3ccn(C)n3)C[C@@H]1[C@H]2c1ccccc1 (single isomer, unassigned) [Example 76]"
3,0.028,"Cc1cc2c(cnn2-c2ccc(F)cc2)cc1[C@@]12CN(S(=O)(=O)N3CCCC3)C[C@@H]1[C@H]2c1ccccc1 (single isomer, unassigned) [Example 99]"
4,0.052,"CC(=O)N1C[C@@H]2[C@@H](c3ccccc3)[C@]2(c2cc3cnn(-c4ccc(F)cc4)c3cc2C)C1 (single isomer, unassigned) [Example 111, 1-(1-(1-(4-fluorophenyl)-6-methyl-1H-indazol-5-yl)-6-phenyl-3-azabicyclo[3.1.0]hexan-3-yl)ethan-1-one]"
5,0.058,"Cc1cc2c(cnn2-c2ccc(F)cc2)cc1[C@@]12CN(C(=O)C(C)C)C[C@@H]1[C@H]2c1ccccc1 (single isomer, unassigned) [Example 113, 1-(1-(1-(4-fluorophenyl)-6-methyl-1H-indazol-5-yl)-6-phenyl-3-azabicyclo[3.1.0]hexan-3-yl)-2-methylpropan-1-one]"
6,0.04,"COC(=O)N1C[C@@H]2[C@@H](c3ccccc3)[C@]2(c2cc3cnn(-c4ccc(F)cc4)c3cc2C)C1 (single isomer, unassigned) [Example 118, methyl 1-(1-(4-fluorophenyl)-6-methyl-1H-indazol-5-yl)-6-phenyl-3-azabicyclo[3.1.0]hexane-3-carboxylate]"
7,0.048,"COCC(=O)N1C[C@@H]2[C@@H](c3ccccc3)[C@]2(c2cc3cnn(-c4ccc(F)cc4)c3cc2C)C1 (single isomer, unassigned) [Example 119, 1-(1-(1-(4-fluorophenyl)-6-methyl-1H-indazol-5-yl)-6-phenyl-3-azabicyclo[3.1.0]hexan-3-yl)-2-methoxyethan-1-one]"
8,0.022,"CCOC(=O)N1C[C@@H]2[C@@H](c3ccccc3)[C@]2(c2cc3cnn(-c4ccc(F)cc4)c3cc2C)C1 (single isomer, unassigned) [Example 122, ethyl 1-(1-(4-fluorophenyl)-6-methyl-1H-indazol-5-yl)-6-phenyl-3-azabicyclo[3.1.0]hexane-3-carboxylate]"
9,0.12,"CNC(=O)N1C[C@@H]2[C@@H](c3ccccc3)[C@]2(c2cc3cnn(-c4ccc(F)cc4)c3cc2C)C1 (single isomer, unassigned) [Example 124, 1-(1-(4-fluorophenyl)-6-methyl-1H-indazol-5-yl)-N-methyl-6-phenyl-3-azabicyclo[3.1.0]hexane-3-carboxamide]"
10,0.029,"Cc1cc2c(cnn2-c2ccc(F)cc2)cc1[C@@]12CN(C(=O)OC3CCOCC3)C[C@@H]1[C@H]2c1ccccc1 (single isomer, unassigned) [Example 125, tetrahydro-2H-pyran-4-yl 1-(1-(4-fluorophenyl)-6-methyl-1H-indazol-5-yl)-6-phenyl-3-azabicyclo[3.1.0]hexane-3-carboxylate]"
11,0.034,"Cc1cc2c(cnn2-c2ccc(F)cc2)cc1[C@@]12CN(C(=O)N3CCCC3)C[C@@H]1[C@H]2c1ccccc1 (single isomer, unassigned) [Example 126, (1-(1-(4-fluorophenyl)-6-methyl-1H-indazol-5-yl)-6-phenyl-3-azabicyclo[3.1.0]hexan-3-yl)(pyrrolidin-1-yl)methanone]"

# The remaining lines, values behind:
row,Compound,Ki [µM]
1,"5-(6-((4,4-difluoropiperidin-1-yl)methyl)-3-((2-methyl-2H-1,2,3-triazol-4-yl)sulfonyl)-3-azabicyclo[3.1.0]hexan-1-yl)-1-(4-fluorophenyl)-6-methyl-1H-indazole [Example 181]",0.25
2,"CC(=O)NC[C@@H]1[C@H]2CN(S(=O)(=O)c3cnn(C)n3)C[C@@]12c1cc2cnn(-c3ccc(F)cc3)c2cc1C (racemic) [Example 135, N-((1-(1-(4-fluorophenyl)-6-methyl-1H-indazol-5-yl)-3-((2-methyl-2H-1,2,3-triazol-4-yl)sulfonyl)-3-azabicyclo[3.1.0]hexan-6-yl)methyl)acetamide]",0.3
3,"CO[C@@]1(c2ccccc2)C[C@H]2CN(C(=O)c3ccccc3)C[C@@]2(c2cc3cnn(-c4ccc(F)cc4)c3cc2C)C1 (single isomer, unassigned) [Example 20, (3a-(1-(4-fluorophenyl)-6-methyl-1H-indazol-5-yl)-5-methoxy-5-phenylhexahydrocyclopenta[c]pyrrol-2(1H)-yl)(phenyl)methanone]",0.079
4,"Cc1cc2c(cnn2-c2ccc(F)cc2)cc1C12CN(S(=O)(=O)c3cnn(C)n3)CC1C2COc1ccc(Cl)cc1 (single isomer, unassigned) [Example 52, 5-(6-((4-chlorophenoxy)methyl)-3-((2-methyl-2H-1,2,3-triazol-4-yl)sulfonyl)-3-azabicyclo[3.1.0]hexan-1-yl)-1-(4-fluorophenyl)-6-methyl-1H-indazole]",0.38
5,"Cc1cc2c(cnn2-c2ccc(F)cc2)cc1C12CN(S(=O)(=O)c3cnn(C)n3)CC1C2COc1ccc(Cl)cc1 (single isomer, unassigned) [Example 53, 5-(6-((4-chlorophenoxy)methyl)-3-((2-methyl-2H-1,2,3-triazol-4-yl)sulfonyl)-3-azabicyclo[3.1.0]hexan-1-yl)-1-(4-fluorophenyl)-6-methyl-1H-indazole]",0.11
6,"Cc1cc2c(cnn2-c2ccc(F)cc2)cc1[C@@]12CN(C(=O)c3cccnc3)C[C@@H]1[C@H]2c1ccccc1 (single isomer, unassigned) [Example 112, (1-(1-(4-fluorophenyl)-6-methyl-1H-indazol-5-yl)-6-phenyl-3-azabicyclo[3.1.0]hexan-3-yl)(pyridin-3-yl)methanone]",0.065
7,"COCCOC(=O)N1C[C@@H]2[C@@H](c3ccccc3)[C@]2(c2cc3cnn(-c4ccc(F)cc4)c3cc2C)C1 (single isomer, unassigned) [Example 123, 2-methoxyethyl 1-(1-(4-fluorophenyl)-6-methyl-1H-indazol-5-yl)-6-phenyl-3-azabicyclo[3.1.0]hexane-3-carboxylate]",0.027
8,"Cc1cc2c(cnn2-c2ccc(F)cc2)cc1[C@@]12CN(C(=O)c3cnn(C)n3)C[C@@H]1[C@H]2c1ccccc1 (single isomer, unassigned) [Example 127, (1-(1-(4-fluorophenyl)-6-methyl-1H-indazol-5-yl)-6-phenyl-3-azabicyclo[3.1.0]hexan-3-yl)(2-methyl-2H-1,2,3-triazol-4-yl)methanone]",0.019
9,"Cc1cc2c(cnn2-c2ccc(F)cc2)cc1[C@@]12CN(C(=O)c3ccccc3F)C[C@@H]1[C@H]2c1ccccc1 (single isomer, unassigned) [Example 128, (2-fluorophenyl)(1-(1-(4-fluorophenyl)-6-methyl-1H-indazol-5-yl)-6-phenyl-3-azabicyclo[3.1.0]hexan-3-yl)methanone]",0.0059
